What was measured:
[1] = test system: FcεRI α- and γ-chains mRNA; test: mRNA transcription level of FcεRI α- and γ-chains in KU812 cells (RT-PCR, Southern hybridization); assay type: cell-based, human; details: serum-free, G3PDH control
Protocol: The mRNA expression of each of the FcεRI α- and γ-chains was detected by RT-PCR and southern hybridization using specific probes. G3PDH (glyceraldehyde-3-phosphate dehydrogenase) was employed as a control.
KU812 cells (1×10^6 cells/mL) were incubated under serum-free conditions in RPMI 1640 medium to which chrysin had been added. After incubating, the cells were washed with PBS once and then completely lysed by adding 1 mL of Trizol (Invitrogen) per 1×10^7 cells and quickly suspending. After allowing to stand at room temperature for 5 min, 0.2 mL of chloroform was added and the mixture was vigorously stirred and overturned. […] The concentration of the total RNA diluted 50-fold with water was measured using a wavelength of 260 nm. […]
The PCR mixture was prepared by mixing 1 μL of the cDNA, 0.8 μL of 2 mM dNTP, 0.6 μL of MgCl2, 0.5 μL of […] sense primer, 0.5 μL of 20 μM antisense primer, 0.1 μL of Taq DNA polymerase (Fermentas) and 1 μL of 10× Taq buffer accompanying Taq DNA polymerase and adjusting the total volume to 10 μL with distilled water. […] Next, amplification was conducted in 13 to 15 cycles (each cycle consisting of 1 min at 95° C., 1 min at 60° C. and 1 min at 72° C. The PCR product was electrophoresed on a 1% agarose gel and the amplified DNA was detected by Southern blotting. […]

KU812 cells = test: A23187-induced histamine release from human basophil cell line KU812; assay type: cell-based; details: 25 μM of chrysin, 5 μM A23187, vs control free from chrysin
Protocol: Human basophil cell line KU812 cells (5×10^6 cells/mL) were incubated in Tyrode buffer comprising 1 mM of CaCl2, to which 25 μM of chrysin had been added, and then stimulated with A23187. Histamine released from the cells and histamine cumulated in the cells were quantified to thereby determine the histamine release rate. Comparison was made with a control system free from chrysin.
Human basophil cell line KU812 cells (5×10^5 cells/mL) were incubated in Tyrode buffer (137 mM NaCl, 2.7 mM KCl, 1.8 mM CaCl2, 1.1 mM MgCl2, 1.19 mM NaHCO3, 0.4 mM NaH2PO4, pH 7.4) comprising 25 μM of chrysin and 1 mM of CaCl2 for 20 min at 37° C. After adding 5 μM of A23187 (Sigma Chemical Co.), the incubation was continued for an additional 20 min at 37° C. […] In a sample for quantifying histamine cumulated in cells, the cells were centrifuged at 300×g for 5 min, ultrasonically disrupted for about 1 min and then centrifuged at 12,000×g for 5 min and 1 mL of the supernatant was collected. To perform fluorescence measurement under alkaline conditions, a complex of histamine and o-phthaldehyde (Wako) was formed and partly extracted. […] The fluorescent intensity was measured using a fluorophotometer RF-1500 at an excitation wavelength of 360 nm and a fluorescent wavelength of 450 nm.

SMILES: O=c1cc(-c2ccccc2)oc2cc(O)cc(O)c12 [Chrysin, 5,7-dihydroxyflavone]
- expression of FcεRI at the mRNA level [1]: suppressed
- histamine release induced by A23187 (KU812 cells): significantly lowered

Reference: US20080262080A1, “Allergy Suppressive Agent” (KYUSHU UNIVERSITY, NATIONAL UNIVERSITY CORPORATION, priority 2004, published 2008)
